Laboratory results: patent US20090306227A1, “TABLET FOR REMOVING TONGUE COATING” (priority 2005, published 2009)

Assay: Solubility of saccharides in water at 37° C.
Type: physicochemical
Conditions: for Used Saccharide (Solubility at 37° C. (weight %)): value in parentheses under the saccharide name; for Solubility in water at 37° C.: unit from the definition, the table prints none
Procedure: The solubility can be determined by a method well-known to those skilled in the art. For example, solubility (% by weight) can be determined as follows. A solute is dissolved gradually in water of weight W1 at 37° C. When the largest amount of the solute is dissolved in the water, the weight of the solution is W2. The weight of the dissolved solute W3 (=W2−W1) is divided by the weight of the solution W2, and multiplied by 100 (i.e., converted to a percentage).

| Compound | Used Saccharide (Solubility at 37° C. (weight %)) | Solubility in water at 37° C. [% by weight] |
| --- | --- | --- |
| OC[C@@H](O)[C@@H](O)CO [Erythritol] | (44) weight % | 44 |
| O=C(CO)[C@@H](O)[C@H](O)[C@H](O)CO [Fructose] | (84) weight % | 84 |
| OC[C@@H](O)[C@@H](O[C@@H]1O[C@H](CO)[C@H](O)[C@H](O)[C@H]1O)[C@H](O)[C@@H](O)CO [Lactitol] | (70) weight % | 70 |
| OC[C@@H](O)[C@@H](O[C@H]1O[C@H](CO)[C@@H](O)[C@H](O)[C@H]1O)[C@H](O)[C@@H](O)CO [Maltitol] | (63) weight % | 63 |
| OC[C@@H](O)[C@@H](O)[C@H](O)[C@H](O)CO [Mannitol] | (23) weight % | 23 |

Results, then the compound that gave them:

| Used Saccharide (Solubility at 37° C. (weight %)) | Solubility in water at 37° C. [% by weight] | Compound |
| --- | --- | --- |
| (40) weight % | 40 | OC[C@H]1O[C@H](OC[C@H]2OC(O)(CO)[C@@H](O)[C@@H]2O)[C@H](O)[C@@H](O)[C@@H]1O (stereo partly shown) [Palatinose] |
| (74) weight % | 74 | OC[C@@H](O)[C@@H](O)[C@H](O)[C@@H](O)CO [Sorbitol] |
| (68) weight % | 68 | OC[C@H]1O[C@@](CO)(O[C@H]2O[C@H](CO)[C@@H](O)[C@H](O)[C@H]2O)[C@@H](O)[C@@H]1O [Sucrose] |
| (52) weight % | 52 | OC[C@H]1O[C@H](O[C@H]2O[C@H](CO)[C@@H](O)[C@H](O)[C@H]2O)[C@H](O)[C@@H](O)[C@@H]1O [Trehalose] |
| (72) weight % | 72 | OC[C@@H](O)[C@H](O)[C@@H](O)CO [Xylitol] |
| (37) weight % | 37 | Palatinit |
